In US7056947B2, “Aza-peptide epoxides” (Georgia Tech Research Corp., priority 2002, dated 2006):

What was measured:
Format in all cases: biochemical
cathepsin B = cathepsin B (Homo sapiens, UniProt P07858); assay: Inhibition of cathepsin B, incubation method; details: second-order rate constant, NI = no inhibition; for kinact/KI: pH 6, read-out: kobs/[I] cathepsin B
Excerpt: The release of 7-amino-4-methylcoumarin was monitored (λex=360 nm, λem=465 nm) using a Tecan Spectra Fluor microplate reader. Pseudo first-order inactivation rate constants were obtained from plots of In vt/vo versus time.

papain = biological target: T1, papain (Carica papaya, UniProt P00784); assay: Inhibition of papain, incubation method; details: second-order rate constant, NI = no inhibition; for kinact/KI: pH 7.5, read-out: kobs/[I] papain
T1 sequence (P00784 134-345): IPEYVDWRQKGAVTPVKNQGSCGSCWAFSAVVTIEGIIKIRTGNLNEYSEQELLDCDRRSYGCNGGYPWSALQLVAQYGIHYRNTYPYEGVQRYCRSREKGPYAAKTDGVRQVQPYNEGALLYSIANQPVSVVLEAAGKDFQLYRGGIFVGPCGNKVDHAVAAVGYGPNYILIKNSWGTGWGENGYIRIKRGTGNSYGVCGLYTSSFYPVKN
Method in brief: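 Papain (~0.29 mg/mL) incubated with inhibitor in 50 mM Hepes pH 7.5, 2.5 mM DTT, 2.5 mM EDTA; residual activity read on Z-Phe-Arg-pNA (53.7 μM) by p-nitroanilide release at 405 nm. Pseudo-first-order inactivation constants from ln vt/vo versus time.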

[1] = biological target: dipeptidyl peptidase I (DPPI, cathepsin C) (Homo sapiens, UniProt P53634); assay: Inhibition of DPPI
[2] = biological target: T2, schistosome legumain SmAE (Schistosoma mansoni asparaginyl endopeptidase) (Schistosoma mansoni, UniProt P09841, N192C, form not given); assay: Schistosome legumain (SmAE) IC50 assay; details: read-out: Schistosome Legumain IC50; preincubated 20 minutes at room temperature, substrate Cbz-Ala-Ala-Asn-AMC; NI = no inhibition
T2 sequence (P09841 1-429 N192C): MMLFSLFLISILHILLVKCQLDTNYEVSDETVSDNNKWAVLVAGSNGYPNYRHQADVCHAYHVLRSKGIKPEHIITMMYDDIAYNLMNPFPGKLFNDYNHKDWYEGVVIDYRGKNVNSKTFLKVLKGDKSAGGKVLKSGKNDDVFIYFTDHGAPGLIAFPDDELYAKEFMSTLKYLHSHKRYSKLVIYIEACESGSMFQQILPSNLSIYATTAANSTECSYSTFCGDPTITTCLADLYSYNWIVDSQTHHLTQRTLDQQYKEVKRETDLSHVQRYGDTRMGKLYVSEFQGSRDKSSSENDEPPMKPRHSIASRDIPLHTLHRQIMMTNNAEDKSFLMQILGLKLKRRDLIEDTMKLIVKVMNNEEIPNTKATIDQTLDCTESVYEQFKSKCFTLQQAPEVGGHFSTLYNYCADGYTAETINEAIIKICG
Method: Studies with the aza-peptide epoxides using the schistosome legumain SmAE (Schistosoma mansoni asparaginyl endopeptidase) were also performed. The enzymatically pure enzyme (zymogen form) was expressed in Pichia without interference from other proteases (ref FEBS lett 2000 466 244–248 Caffrey). The actual active site enzyme concentration is unknown. The lyophilized enzyme (50–100 mg) was reconstituted in 1.5 mL 0.5 M sodium acetate, pH 4.5 containing 4 mM DTT, and left to stand at 37° C. for 3–4 hours to allow for auto-activation of the zymogen. In a black 96-well microtiter plate, 50 uL of activated enzyme was added to an equal volume of 0.1 M citrate-phosphate buffer pH 6.8 containing 4 mM DTT. Inhibitor stock solutions (20 mM) were prepared in DMSO. Serial dilutions (using water) of inhibitor were added (as 1 uL aliquots) to yield concentrations of between 2 and 0.00002 uM inhibitor. The inhibitors were preincubated with the protease at room temperature for 20 minutes before the assay (IC50s were the same when incubated for only 5 minutes). After incubating various inhibitor concentrations with enzyme, 100 uL of the same buffer containing 20 uM substrate (Cbz-Ala-Ala-Asn-AMC) was added to the wells and the reaction monitored at room temperature with linear kinetics up to 20 minutes. Inhibitors are tested in duplicate. A plot of the RFU/min versus the inhibitor concentration [μM] permitted calculation of an IC50 value and estimation of the kobs/[I].

porcine pepsin = porcine pepsin (Sus scrofa, UniProt P00791); assay: Aspartyl protease assay, pepsin; details: preincubated 20 minutes, pH 3.5
Method: (§1) Aspartyl Proteases. Assays with the following aspartyl proteases were performed: porcine pepsin, human cathepsin D, plasmepsin 2 (from P. falciparum), and the secreted aspartic proteinase 2 (SAP-2) from Candida albicans. The inhibitors were also assayed with HIV-1 protease. The inhibitors were preincubated for 30 minutes with HIV-1 protease and 20 minutes with the other enzymes. Substrate was then added and the substrate hydrolysis was monitored.

[3] = biological target: secreted aspartic proteinase 2 (SAP-2) (Candida albicans, UniProt P0DJ06); assay: Aspartyl protease assay, SAP-2; details: preincubated 20 minutes, pH 4.5
Method: as §1

HIV-1 protease = HIV-1 protease (Human immunodeficiency virus type 1 group M subtype B, UniProt P04585); assay: Aspartyl protease assay, HIV-1 protease; details: preincubated 30 minutes
Method: as §1

plasmepsin 2 = plasmepsin 2 (Plasmodium falciparum, UniProt P46925); assay: Aspartyl protease assay, plasmepsin 2; details: preincubated 20 minutes, pH 4.5
Method: as §1

human cathepsin D = human cathepsin D (Homo sapiens, UniProt P07339); assay: Aspartyl protease assay, cathepsin D; details: preincubated 20 minutes, pH 3.5
Method: as §1

granzyme B = granzyme B (Homo sapiens, UniProt P10144); assay: Granzyme B assay; details: preliminary assays, inhibitor 5 mM stock incubated 1 hour, substrate IETD-pNA
Method: Granzyme B. Assays with granzyme B were also performed. In the preliminary assays, the inhibitor (10 μL, 5 mM stock solution in DMSO) was incubated with granzyme B (90 μL) for 1 hour. After the incubation period, to these wells was added IETD-pNA (100 μL) and the rate was monitored at 405 nm.

Chain of dipeptidyl peptidase I (DPPI, cathepsin C) (P53634 25-463, species assumed): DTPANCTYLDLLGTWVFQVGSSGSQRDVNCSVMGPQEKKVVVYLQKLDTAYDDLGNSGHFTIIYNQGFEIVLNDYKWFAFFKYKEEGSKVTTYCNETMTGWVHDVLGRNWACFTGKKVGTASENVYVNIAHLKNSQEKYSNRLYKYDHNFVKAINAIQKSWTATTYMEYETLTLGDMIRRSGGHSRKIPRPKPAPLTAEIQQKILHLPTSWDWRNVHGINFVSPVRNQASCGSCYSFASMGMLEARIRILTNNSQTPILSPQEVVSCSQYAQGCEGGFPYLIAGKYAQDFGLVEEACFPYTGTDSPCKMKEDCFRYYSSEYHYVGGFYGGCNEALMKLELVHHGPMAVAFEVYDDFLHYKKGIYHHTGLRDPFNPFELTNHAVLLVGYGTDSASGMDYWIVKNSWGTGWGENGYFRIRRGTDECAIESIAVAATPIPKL
Chain of granzyme B (P10144 21-247, species assumed): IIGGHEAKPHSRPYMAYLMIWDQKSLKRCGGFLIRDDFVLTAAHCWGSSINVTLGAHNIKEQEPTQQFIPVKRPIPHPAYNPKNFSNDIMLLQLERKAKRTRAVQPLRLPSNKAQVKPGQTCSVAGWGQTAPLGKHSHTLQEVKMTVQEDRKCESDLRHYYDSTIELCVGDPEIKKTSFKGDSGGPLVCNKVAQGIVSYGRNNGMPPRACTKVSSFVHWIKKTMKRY
Chain of porcine pepsin (P00791 60-385): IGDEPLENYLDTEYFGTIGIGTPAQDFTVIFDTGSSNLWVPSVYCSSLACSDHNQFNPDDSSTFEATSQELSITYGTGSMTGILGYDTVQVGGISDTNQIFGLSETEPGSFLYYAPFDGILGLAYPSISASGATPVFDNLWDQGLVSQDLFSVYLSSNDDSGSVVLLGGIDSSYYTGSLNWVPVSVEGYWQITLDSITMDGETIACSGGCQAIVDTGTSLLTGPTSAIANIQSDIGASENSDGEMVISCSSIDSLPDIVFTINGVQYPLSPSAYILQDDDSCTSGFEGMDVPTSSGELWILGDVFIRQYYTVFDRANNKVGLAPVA
Chain of secreted aspartic proteinase 2 (SAP-2) (P0DJ06 57-398): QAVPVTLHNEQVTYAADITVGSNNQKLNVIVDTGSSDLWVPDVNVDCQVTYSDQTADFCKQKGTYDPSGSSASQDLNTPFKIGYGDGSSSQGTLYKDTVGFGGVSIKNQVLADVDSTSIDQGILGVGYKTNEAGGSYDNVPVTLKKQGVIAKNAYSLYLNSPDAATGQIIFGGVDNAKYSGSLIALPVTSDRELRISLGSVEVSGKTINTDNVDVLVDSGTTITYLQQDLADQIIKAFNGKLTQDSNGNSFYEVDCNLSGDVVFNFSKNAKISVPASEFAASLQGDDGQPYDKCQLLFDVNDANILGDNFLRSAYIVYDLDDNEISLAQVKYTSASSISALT
Chain of human cathepsin D (P07339 65-412): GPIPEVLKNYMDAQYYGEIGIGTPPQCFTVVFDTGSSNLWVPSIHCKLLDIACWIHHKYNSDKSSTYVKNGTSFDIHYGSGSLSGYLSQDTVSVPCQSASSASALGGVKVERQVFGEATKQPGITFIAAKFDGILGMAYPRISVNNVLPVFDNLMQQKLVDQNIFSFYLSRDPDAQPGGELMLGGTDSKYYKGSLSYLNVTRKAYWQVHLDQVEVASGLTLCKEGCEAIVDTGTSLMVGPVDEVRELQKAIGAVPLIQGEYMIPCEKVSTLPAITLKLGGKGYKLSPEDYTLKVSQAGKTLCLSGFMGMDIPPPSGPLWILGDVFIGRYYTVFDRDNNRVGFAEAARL
Chain of plasmepsin 2 (P46925 125-453): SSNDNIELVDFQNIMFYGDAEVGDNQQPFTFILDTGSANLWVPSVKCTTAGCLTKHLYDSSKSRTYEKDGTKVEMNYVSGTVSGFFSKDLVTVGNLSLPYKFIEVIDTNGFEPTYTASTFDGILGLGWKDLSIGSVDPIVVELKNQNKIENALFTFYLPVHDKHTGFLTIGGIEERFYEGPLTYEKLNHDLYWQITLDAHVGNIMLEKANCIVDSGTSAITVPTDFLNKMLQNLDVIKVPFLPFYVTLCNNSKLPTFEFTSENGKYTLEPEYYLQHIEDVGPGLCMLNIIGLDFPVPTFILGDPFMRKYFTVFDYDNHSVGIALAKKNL

CCCC[C@H](NC(=O)OC(C)(C)C)C(=O)NN(CCc1ccccc1)C(=O)[C@@H]1O[C@H]1C(=O)OCC (relative stereo) [Boc-Nle-AHph-trans-EP-COOEt, trans-3-(N^2-(N-tert-Butoxycarbonylnorleucyl)-N^1-phenylethylhydrazinocarbonyl)oxirane-2-carboxylic Acid Ethyl Ester]
kinact/KI (cathepsin B): 1.3 M⁻¹ s⁻¹ | kinact/KI (papain): 1.6 M⁻¹ s⁻¹ | kinact/KI ([1]; read-out: kobs/[I] DPPI): 0.7 M⁻¹ s⁻¹

CC(NC(=O)OCc1ccccc1)C(=O)NC(C)C(=O)NN(CC(N)=O)C(=O)C1OC1C(=O)NCc1ccccc1 [12d, (2S,3S)-2-(2-Benzylcarbamoyl)-3-(N^2-(N-benzyloxycarbonylalanylalanyl)-N^1-carbamoylmethylhydrazinocarbonyl)oxirane]
IC50 [2]: > 2000 nM

trans-3-(N-(N-tert-Butoxycarbonylnorvalyl)-N^1-phenylethylhydrazinocarbonyl)oxirane-2-carboxylic Acid Ethyl Ester [Boc-Nva-AHph-trans-EP-COOEt]
kobs/[I] cathepsin B (cathepsin B): 2.7 M⁻¹ s⁻¹ | kobs/[I] papain (papain): 1.4 M⁻¹ s⁻¹ | kobs/[I] DPPI [1]: 0.5 M⁻¹ s⁻¹

CCOC(=O)[C@H]1O[C@@H]1C(=O)N(CC(N)=O)NC(=O)[C@H](C)NC(=O)[C@H](C)NC(=O)OCc1ccccc1 [Cbz-Ala-Ala-AAsn-(2S, 3S)-EP-COOEt, (2S,3S)-3-(N^2-(N-Benzyloxycarbonylalanylalanyl)-N^1-carbamoylmethylhydrazinocarbonyl)oxirane-2-carboxylic Acid Ethyl Ester]
inhibition of porcine pepsin (porcine pepsin): less than 20% | kinact/KI (cathepsin B): 6 M⁻¹ s⁻¹ | inhibition of SAP-2 [3]: less than 20% | kinact/KI (papain): 4 M⁻¹ s⁻¹ | inhibition of HIV-1 protease (HIV-1 protease): less than 20% | inhibition of plasmepsin 2 (plasmepsin 2): less than 20% | inhibition of human cathepsin D (human cathepsin D): less than 20% | inhibition of granzyme B (granzyme B): no inhibition

CC(NC(=O)[C@@H]1O[C@H]1C(=O)N(CC(N)=O)NC(=O)[C@H](C)NC(=O)[C@H](C)NC(=O)OCc1ccccc1)C(=O)NCc1ccccc1 (stereo partly drawn) [12f, (2R,3R)-2-(1-Benzylcarbamoylethylcarbamoyl)-3-(N^2-(N-benzyloxycarbonylalanylalanyl)-N^1-carbamoylmethylhydrazinocarbonyl)oxirane]
IC50 [2]: > 2000 nM

CCCCC(N)C(=O)NN(CCc1ccccc1)C(=O)C1OC1C(=O)OCC.O=C(O)C(F)(F)F (stereo not drawn) [Nle-AHph-trans-EP-COOEt.TFA, trans-3-(N^2-Norleucyl)-N^1-phenylethylhydrazinocarbonyl)oxirane-2-carboxylic Acid Ethyl Ester Trifluoroacetate Salt]
kobs/[I] DPPI [1]: 8.2 M⁻¹ s⁻¹

CC(NC(=O)OCc1ccccc1)C(=O)NC(C)C(=O)NN(CC(N)=O)C(=O)C1OC1C(=O)NCCc1ccccc1 [12e, (2S,3S)-2-(2-Phenethylcarbamoyl)-3-(N^2-(N -benzyloxycarbonylalanylalanyl)-N^1-carbamoylmethylhydrazinocarbonyl)oxirane]
IC50 [2]: > 2000 nM
